According to patent publication US9453028B2, “Protein kinase C inhibitors and uses thereof” (Rigel Pharmaceuticals, Inc., priority 2009, dated 2016):

What was measured:
Human primary T cell = test: IL-2 ELISA, human primary T cell, anti-CD3+CD28+ whole cell assay; format: cell-based; conditions: IL-2 by ELISA, human primary T cells stimulated with anti-CD3+CD28
Method: 2. IL-2 ELISA, Human Primary T Cell, Anti-CD3+CD28+ Assays
Human primary T cells were prepared as follows. Whole blood was obtained from a healthy volunteer, mixed 1:1 with PBS, layered on to Ficoll Hypaque (Amersham Pharmacia Biotech, Piscataway, N.J., Catalog #17-1440-03) in 2:1 blood/PBS:ficoll ratio and centrifuged for 30 minutes at 4° C. at 1750 rpm. The cells at the serum:ficoll interface were recovered and washed twice with 5 volumes of PBS. These freshly isolated human peripheral blood mononuclear cells were cultured in Yssel's medium containing 40 U/mL IL2 in a flask pre-coated with 1 μg/mL αCD3 and 5 μg/mL αCD28 (Anti-Human CD3, BD Pharmingen Catalog #555336, Anti-Human CD28, Beckman Coulter Catalog #1M1376). The cells were stimulated for 3-4 days, then transferred to a fresh flask and maintained in RPMI (RPMI-1640 with L-Glutamine; Mediatech, Inc., Herndon Va., cat. #10-040-CM) with 10% FBS and 40 U/mL IL-2. The primary T-cells were then washed twice with PBS to remove the IL-2.
Human primary T cells (100,000 cells per well) were pre-incubated with or without test compound in Yssel's medium for 1 hr at 37° C. Cells were then stimulated by transferring them to round-bottom 96-well plates pre-coated with 1 μg/ml αCD3 and 5 μg/ml αCD28. For counter assay, cells were instead stimulated by adding 8× stock solutions of PMA and ionomycin in Yssels (for final concentrations of 0.5 ng/ml PMA and 0.1 μM ionomycin, both from Calbiochem). Cells were incubated at 37° C. for 24 hours before 100 μL supernatants were harvested for quantification of IL-2 by ELISA using Human IL-2 Duoset ELISA Kit from R and D Systems, Cat. # DY202E.
(§1) Several subject compounds were tested according to procedures in the “Characterization of Functional Properties” section. PKC kinase activity was measured using the procedure Section A.1 (Protein Kinase C assay) with the appropriate isoform. The whole cell assay was run according to the procedure in Section A.2 (IL-2 ELISA, Human primary T cell, anti-CD3+CD28+ Assays). […] Blank entries indicate that the IC50 was not determined.

PKC-delta = target: T1, PKC-delta (Homo sapiens, UniProt Q05655); test: Protein Kinase C assay (fluorescence polarization), PKC-delta; format: biochemical
T1 construct: purchased Oxford Biomedical Research
Method: (§2) The inhibition of PKC activity was measured by monitoring the production of phosphorylated peptide by fluorescence polarization at different concentrations of the inhibitor. Reactions were carried out in 96-well plate format with a total volume of 20 μL containing 20 mM HEPES, pH 7.4, 5 mM MgCl2, 0.2 mM CaCl2, 1 mM DTT, 0.02% Brij-35, 0.1 mg/mL phosphatidylserine, 0.02 mg/mL dioleoyl-sn-glycerol and 5 μM each of ATP and the peptide substrate. Compounds were first diluted serially in DMSO and then transferred to a solution containing the above concentrations of HEPES, MgCl2, CaCl2, DTT, and Brij-35 to yield 5× compound solutions in 2% DMSO, which was then added to the reaction solution. Reactions were initiated by the addition of PKC at a typical concentration as described in the table below, and then allowed to incubate at room temperature for 20 minutes. At the end of this time, a combination of quench (EDTA) and detection (peptide tracer and antibody) reagents was added using the protocol of Invitrogen P2748 (Carlsbad, Calif.), a Protein Kinase C Fluorescence polarization Assay Kit. After a 30 minute period of incubation, the amount of phosphorylated peptide generated was measured by fluorescence polarization (Ex=485 nm, Em=535 nm) using a Tecan Polarian instrument (Switzerland).
Human recombinant PKC δ is obtained from Oxford Biomedical Research and is used under the assay conditions as described under Section A.1 above.
as §1

PKC-theta = target: T2, PKC-theta (Homo sapiens, UniProt Q04759); test: Protein Kinase C assay (fluorescence polarization), PKC-theta; format: biochemical
T2 construct: purchased Upstate Biotechnologies, Temecula, CA 14-444
Method: as §2
Human recombinant PKC θ is used under the assay conditions as described above.
as §1

PKC-epsilon = target: T3, PKC-epsilon (Homo sapiens, UniProt Q02156); test: Protein Kinase C assay (fluorescence polarization), PKC-epsilon; format: biochemical
T3 construct: purchased Upstate Biotechnologies, Temecula, CA 14-518
T3 sequence (Q02156 1-737): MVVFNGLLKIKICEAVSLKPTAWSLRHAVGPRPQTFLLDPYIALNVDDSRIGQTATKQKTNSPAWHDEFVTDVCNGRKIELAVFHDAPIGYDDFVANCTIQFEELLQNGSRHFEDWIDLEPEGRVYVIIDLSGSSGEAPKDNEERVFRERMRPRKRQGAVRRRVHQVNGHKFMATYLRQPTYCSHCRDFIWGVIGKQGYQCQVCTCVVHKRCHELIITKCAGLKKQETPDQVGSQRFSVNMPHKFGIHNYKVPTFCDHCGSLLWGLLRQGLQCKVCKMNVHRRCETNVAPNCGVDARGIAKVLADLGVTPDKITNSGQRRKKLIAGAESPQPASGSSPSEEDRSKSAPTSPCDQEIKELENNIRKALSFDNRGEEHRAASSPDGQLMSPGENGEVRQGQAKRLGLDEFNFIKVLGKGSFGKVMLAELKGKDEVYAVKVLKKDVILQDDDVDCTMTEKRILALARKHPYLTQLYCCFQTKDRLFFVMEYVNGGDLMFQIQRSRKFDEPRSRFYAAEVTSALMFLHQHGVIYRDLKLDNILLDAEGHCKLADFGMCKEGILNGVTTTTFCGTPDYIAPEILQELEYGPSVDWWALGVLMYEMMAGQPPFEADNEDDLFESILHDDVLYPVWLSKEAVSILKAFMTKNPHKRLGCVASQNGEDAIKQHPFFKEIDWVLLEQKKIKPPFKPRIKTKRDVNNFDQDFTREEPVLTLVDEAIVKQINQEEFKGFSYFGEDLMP
Method: as §2
Human recombinant PKC […] is obtained from Oxford Biomedical Research and is used under the assay conditions as described under Section A.1 above.
as §1

PKC-alpha = target: T4, PKC-alpha (Homo sapiens, UniProt P17252); test: Protein Kinase C assay (fluorescence polarization), PKC-alpha; format: biochemical
T4 construct: purchased Oxford Biomedical Research
Method: as §2
Human recombinant PKC α is obtained from Oxford Biomedical Research and is used under the assay conditions as described under Section A.1 above.
as §1

PKC-beta = target: T5, PKC-beta (Homo sapiens, UniProt P05771); test: Protein Kinase C assay (fluorescence polarization), PKC-beta; format: biochemical
T5 construct: purchased Oxford Biomedical Research
Method: as §2
Human recombinant PKC β1 is obtained from Oxford Biomedical Research and is used under the assay conditions as described under Section A.1 above.
as §1

Measured: IC50

T1 sequence (Q05655 whole entry): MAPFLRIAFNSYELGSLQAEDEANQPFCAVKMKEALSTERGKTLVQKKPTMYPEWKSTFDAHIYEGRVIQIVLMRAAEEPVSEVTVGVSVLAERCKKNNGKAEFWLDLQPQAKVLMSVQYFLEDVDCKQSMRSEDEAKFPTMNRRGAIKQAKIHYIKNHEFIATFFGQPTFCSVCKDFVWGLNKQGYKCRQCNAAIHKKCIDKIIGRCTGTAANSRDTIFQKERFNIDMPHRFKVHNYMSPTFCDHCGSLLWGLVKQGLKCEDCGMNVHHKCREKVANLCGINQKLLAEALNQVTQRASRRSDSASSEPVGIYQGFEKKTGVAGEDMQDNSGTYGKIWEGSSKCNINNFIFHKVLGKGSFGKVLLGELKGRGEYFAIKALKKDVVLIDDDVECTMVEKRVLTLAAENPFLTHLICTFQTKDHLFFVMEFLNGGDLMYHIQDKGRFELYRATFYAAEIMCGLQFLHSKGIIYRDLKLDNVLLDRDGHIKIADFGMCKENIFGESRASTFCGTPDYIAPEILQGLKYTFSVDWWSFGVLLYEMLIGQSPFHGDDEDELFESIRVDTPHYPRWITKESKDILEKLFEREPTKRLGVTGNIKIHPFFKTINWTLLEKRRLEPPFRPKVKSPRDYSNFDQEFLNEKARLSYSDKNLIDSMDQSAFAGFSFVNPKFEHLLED
T2 sequence (Q04759 whole entry): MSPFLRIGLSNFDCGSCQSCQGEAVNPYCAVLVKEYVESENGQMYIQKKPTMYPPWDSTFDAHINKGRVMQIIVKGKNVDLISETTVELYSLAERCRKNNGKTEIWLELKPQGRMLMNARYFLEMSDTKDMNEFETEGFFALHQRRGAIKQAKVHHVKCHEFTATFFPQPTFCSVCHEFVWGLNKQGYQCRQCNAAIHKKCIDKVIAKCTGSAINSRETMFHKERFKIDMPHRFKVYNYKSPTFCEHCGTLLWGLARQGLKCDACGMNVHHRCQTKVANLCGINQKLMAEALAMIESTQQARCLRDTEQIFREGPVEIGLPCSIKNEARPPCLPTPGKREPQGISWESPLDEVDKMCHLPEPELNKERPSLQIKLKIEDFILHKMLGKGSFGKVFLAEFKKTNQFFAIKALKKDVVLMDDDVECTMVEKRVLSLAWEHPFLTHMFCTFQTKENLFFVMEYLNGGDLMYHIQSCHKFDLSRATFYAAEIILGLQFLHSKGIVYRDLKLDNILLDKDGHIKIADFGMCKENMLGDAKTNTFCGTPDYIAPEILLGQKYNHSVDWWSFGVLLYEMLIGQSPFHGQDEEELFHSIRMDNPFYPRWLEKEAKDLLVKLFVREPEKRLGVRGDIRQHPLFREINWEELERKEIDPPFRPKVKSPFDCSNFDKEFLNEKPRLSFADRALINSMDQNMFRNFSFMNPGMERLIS
T5 sequence (P05771 whole entry): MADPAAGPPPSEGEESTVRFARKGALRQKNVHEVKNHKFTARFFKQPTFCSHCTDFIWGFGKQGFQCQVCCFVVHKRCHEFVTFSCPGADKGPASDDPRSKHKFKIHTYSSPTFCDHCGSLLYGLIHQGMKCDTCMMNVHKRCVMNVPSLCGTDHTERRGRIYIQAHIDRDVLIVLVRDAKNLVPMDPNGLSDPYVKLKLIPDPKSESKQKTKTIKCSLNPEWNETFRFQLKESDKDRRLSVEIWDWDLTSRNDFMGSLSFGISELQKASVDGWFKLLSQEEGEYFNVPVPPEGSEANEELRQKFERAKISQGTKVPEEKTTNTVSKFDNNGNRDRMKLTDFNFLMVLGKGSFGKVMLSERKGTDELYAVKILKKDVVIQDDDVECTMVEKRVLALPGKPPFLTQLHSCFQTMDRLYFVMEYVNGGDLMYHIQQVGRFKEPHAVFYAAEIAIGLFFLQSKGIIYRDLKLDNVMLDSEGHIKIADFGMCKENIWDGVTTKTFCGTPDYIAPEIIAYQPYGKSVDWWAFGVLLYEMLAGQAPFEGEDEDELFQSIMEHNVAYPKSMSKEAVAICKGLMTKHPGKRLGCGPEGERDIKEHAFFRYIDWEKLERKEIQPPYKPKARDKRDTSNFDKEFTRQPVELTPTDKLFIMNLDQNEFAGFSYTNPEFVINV

CC1(C)CC(Nc2nc(Nc3ccc4c(c3)-n3nnnc3C(C)(C)O4)ncc2F)CC(C)(C)N1 [Compound 1-7, N2-(4,4-dimethyl-4H-benzo[b]tetrazolo[1,5-d][1,4]oxazin-8-yl)-5-fluoro-N4-(2,2,6,6-tetramethylpiperidin-4-yl)pyrimidine-2,4-diamine]
< 250 nM: Human primary T cell; T-cell | PKC-delta | PKC-theta | PKC-epsilon | PKC-alpha | PKC-beta

CN1C(C)(C)CC(Nc2nc(Nc3ccc4c(c3)-n3nnnc3C3(CCC3)O4)ncc2F)CC1(C)C [Compound 1-12, N2-{2,1-Spiro-butane-4H-tetrazolo[5,1-c][1,4]benzoxazin-8-yl}-5-fluoro-N4-(1,2,2,6,6-pentamethylpiperidin-4-yl)-2,4-pyrimidinediamine]
< 250 nM: Human primary T cell | PKC-delta | PKC-theta | PKC-epsilon | PKC-alpha | PKC-beta

CC1(C)CC(CNc2nc(Nc3ccc4c(c3)-n3nnnc3CO4)ncc2F)C(C)(C)N1 (stereo not drawn) [Compound 2-1, N2-(4H-benzo[b]tetrazolo[1,5-d][1,4]oxazin-8-yl)-5-fluoro-N4-((2,2,5,5-tetramethylpyrrolidin-3-yl)methyl)pyrimidine-2,4-diamine]
< 250 nM: Human primary T cell; T-cell | PKC-delta | PKC-theta | PKC-epsilon | PKC-alpha | PKC-beta
